{"source": "patent US20230098111A1", "about": "“COMPOSITIONS AND METHODS TO TREAT NEUROLOGICAL DISEASES” (University of Southern California, priority 2020, published 2023)", "key": {"[1]": {"test_system": "Drosophila larvae expressing GR dipeptide repeats", "assay": "NMJ degeneration in poly(GR) Drosophila ALS model", "assay_type": "in vivo", "experimental": "Apilimod (30 μM) was fed to control and larvae expressing 100× (A,C) or 36× (B,D) GR dipeptide repeats. […] Unpaired t-test. **p<0.01, ***p<0.001.\nTesting the efficacy of PIKFYVE suppression in vivo. The fruit fly Drosophila is a powerful genetic system for studying the effects of ALS gene products on neuromuscular junction (NMJ) function. […] It was shown that overexpression of wild-type or mutant TDP-43, SOD1, or the C9ORF72 repeat expansion in Drosophila larvae causes neurodegeneration and an increase in the time required for larvae to right themselves after being turned on their dorsal side, reflecting a decrease in motor function (FIG. 30A-C). […] Overexpression of the C9ORF72 DPR poly(GR)(36 or 100 repeats) causes a dramatic reduction in synaptic arborization, active zone number, and synaptic strength at NMJs (FIG. 31A-D)."}, "[2]": {"test_system": "C9ORF72 FTD iNs", "assay": "Survival of C9ORF72 FTD iNs", "assay_type": "cell-based, human", "conditions": "DMSO or apilimod; scrambled or PIKFYVE ASOs", "excerpt": "(A) Survival of C9ORF72 iNs with DMSO or apilimod. Log-rank test, 100 iNs per group. […] Log-rank test, 100 iNs per group. […] Mean+/−s.e.m. Kruskal-Wallis Test.\n(A, B) Survival of C9-FTD iNs treated with DMSO and Apilimod (A) or Apilimod+GW4869 (exocytosis blocker) (B). Log-rank test. 100 iNs per group. iNs quantified from 3 independent replicates per group.\nMutations in MAPT cause FTD with tau aggregates. To determine if iNs from FTD patients display neurodegenerative phenotypes, an established method to generate cortical neurons from iPSCs by forced expression of NGN2 was used. 3 FTD patient iPSC lines harboring a MAPTV337M mutation and their CRISPR-edited isogenic controls from a published cell bank were utilized. Neurons from MAPT-mutant iPSCs display increased phosphorylated and oligomeric tau, similar to post-mortem patient tissue (FIG. 18A). […] Thus, MAPT iNs display key features of FTD with tau pathology.\nThus, C9ORF72 iNs provide a robust model of FTD.\n(§1) PIKFYVE inhibition rescues neurodegeneration through secretory autophagy."}, "[3]": {"test_system": "sporadic ALS iMNs", "assay": "Survival of sporadic ALS iMNs", "from_the_text": "(A) Survival of control (CTRL) and C9ORF72 ALS/FTD patient (C9-ALS) iMNs with a 12-hour pulse treatment of excess glutamate shown for each individual line separately. iMNs quantified from 3 independent iMN conversions per line. (B-D) Immunofluorescence analysis of total TDP-43 (B) and quantification of the ratio of nuclear to cytoplasmic TDP-43 in control, C9-ALS (C), or sporadic ALS (D) iMNs. MNs from 2 controls and 2 C9-ALS patients (C) or 4 sporadic ALS patients (D) were quantified. n=30 (controls), 30 (C9-ALS/FTD), or 36 (sporadic) iMNs per line per condition from 2 biologically independent iMN conversions of 2 control, 2 C9-ALS/FTD, or 4 sporadic ALS lines were quantified. Each gray circle represents a single iMN. Median±interquartile range. Unpaired Mann-Whitney test. Scale bars: 5 μm. Dotted lines outline the nucleus and cell body. (E) Survival of control and sporadic iMNs with glutamate treatment. iMNs quantified from 3 independent iMN conversions per line. For iMN survival experiments, significance was measured by 2-sided log-rank test using the entire survival time course.\n(B) Survival of C9-ALS/FTD iMNs with DMSO or apilimod. (C) Survival of sporadic ALS induced motor neurons (iMNs) with DMSO or apilimod. (D) Survival of C9-ALS/FTD iMNs with a scrambled ASO or PIKFYVE ASOs, 100 iMNs per group. […] Unpaired t-test. iMN survival experiments analyzed by log-rank test. […]"}, "[4]": {"test_system": "TDP-43", "assay": "Nuclear:cytoplasmic TDP-43 in C9ORF72 ALS/FTD iMNs", "assay_type": "cell-based, human", "conditions": "DMSO or apilimod"}, "[5]": {"test_system": "SOD1 A4V iMNs", "assay": "Survival of SOD1 ALS iMNs", "assay_type": "cell-based, human", "conditions": "neurotrophic factor withdrawal; DMSO or 3 uM apilimod", "experimental": "(§2) (A) Survival of control or SOD1 A4V iMNs with DMSO or 3 uM apilimod. (B) Survival of TDP-43 G298S iMNs with DMSO or 3 uM apilimod. (C) Survival of MAPT V337M or isogenic control iNs.\n(§3) PIKFYVE inhibition rescues the survival of TARDBP ALS, SOD1 ALS, and MAPT FTD patient neurons. Since the accumulation of misfolded proteins is a common disease mechanism in all forms of ALS, FTD, and Alzheimer's disease, it was reasoned that inducing secretory autophagy might rescue neurodegeneration in diverse patients. iMNs were generated from ALS patients harboring mutations in TARDBP or SOD1 as well as NGN2-induced neurons (iNs) from MAPT^V337M FTD. […] 2 additional isogenic pairs of iPSC lines from MAPT FTD patients, 2 additional TARDBP ALS iPSC lines, and 2 additional SOD1 ALS iPSC lines were all obtained."}, "[6]": {"test_system": "TDP-43 G298S iMNs", "assay": "Survival of TARDBP ALS iMNs", "assay_type": "cell-based, human", "conditions": "neurotrophic factor withdrawal; DMSO or 3 uM apilimod", "experimental": "as §2, §3"}, "[7]": {"test_system": "C9-FTD iNs", "assay": "Exosome secretion from iNs", "assay_type": "cell-based, human", "excerpt": "(A) […] of exosomes from apilimod-treated C9-FTD iNs. (B) Western blot of TSG101, TDP-43, and Neurofilament heavy chain levels in the exosome fraction secreted from control or C9-FTD iNs upon apilimod treatment. (C,D) Quantification of the exosome marker TSG101 (C) or TDP-43 (D) in the exosome fraction of control and C9-FTD iNs treated with DMSO, apilimod, or apilimod+GW4869. Kruskal-Wallis test for B, C. N=3 biological replicates per condition, one line per genotype. (E) Number of poly(GR)-GFP+ exosomes secreted from iNs expressing exogenous poly(GR)-GFP upon DMSO or apilimod treatment. N=4 biological replicates. Exosomes were labeled with CFSE-red dye to enable detection by FACS. Unpaired t-test.\nTo test this, exosome release from iNs upon PIKFYVE inhibition was examined. […] Thus, PIKFYVE inhibition induces the secretion of TDP-43 and C9ORF72 DPRs from iNs\nas §1"}, "[8]": {"test_system": "C9-ALS/FTD iMNs", "assay": "Exosome secretion from iMNs", "assay_type": "cell-based, human", "excerpt": "(A) Western blot of TSG101, TDP-43, and Neurofilament heavy chain levels in the exosome fraction secreted from control or C9-ALS/FTD iMNs upon apilimod treatment. […] Kruskal-Wallis test for B, C. N=3 biological replicates per condition, one line per genotype. (D) Number of poly(GR)-GFP+ exosomes secreted from iMNs expressing exogenous poly(GR)-GFP upon DMSO or apilimod treatment. N=4 biological replicates. Exosomes were labeled with CFSE-red dye to enable detection by FACS. Unpaired t-test.\nBlocking PIKFYVE activity induces secretory autophagy. […] Thus, secretory autophagy maintains proteostasis and prevents neuronal death in TDP-43 mouse models. PIKFYVE inhibition blocks autophagosome-lysosome fusion by […] their ratio in endosomal, lysosomal and autophagosomal membranes. One might expect this to be detrimental to ALS iMNs, which can degenerate due to misfolded protein accumulation. However, inhibition of autophagosome-lysosome fusion using PIKFYVE inhibition or bafilomycin can activate secretory autophagy to jettison misfolded proteins from cells. […] To test this hypothesis, exosomal release in human iMNs upon PIKFYVE inhibition was examined. […] Thus, PIKFYVE inhibition induces the secretion of TDP-43 and C9ORF72 DPRs from iMNs.\nDetermining if PIKFYVE suppression rescues neurodegeneration through secretory autophagy. […] ASOs were designed targeting […]. It was confirmed that the ASOs suppressed RAB27A expression in iMNs."}, "[9]": {"conditions": "apilimod 30 μM fed to larvae expressing poly(GR)"}, "[10]": {"conditions": "apilimod 30 μM fed to larvae expressing poly(GR), listed as Apilimod"}, "[11]": {"conditions": "western blot of exosome fraction"}}, "data": [{"smiles": "Cc1cccc(/C=N/Nc2cc(N3CCOCC3)nc(OCCc3ccccn3)n2)c1", "note": "[apilimod]", "values": [{"measurement": "NMJ degeneration", "setting": "[1]; apilimod 30 μM", "result": "suppresses NMJ degeneration"}, {"measurement": "NMJ boutons", "setting": "[1]; [9]", "result": "More active zones and NMJ boutons"}, {"measurement": "number of active zones at NMJ", "setting": "[1]; [9]", "result": "More active zones"}, {"measurement": "synaptic strength (EPSP amplitude)", "setting": "[1]; [9]", "result": "enhanced synaptic strength"}, {"measurement": "number of active zones at NMJ", "setting": "[1]; [10]", "result": "partially rescues"}, {"measurement": "synaptic strength (EPSP amplitude)", "setting": "[1]; [10]", "result": "partially rescues"}, {"measurement": "survival of C9ORF72 iNs", "setting": "[2]", "result": "also rescued C9ORF72"}, {"measurement": "sporadic ALS iMN survival", "setting": "[3]", "result": "one of the most potent"}, {"measurement": "nuclear localization of TDP-43 in C9ORF72 iMNs", "setting": "[4]", "result": "rescued the nuclear localization of TDP-43"}, {"measurement": "survival of SOD1 ALS iMNs", "setting": "[5]", "result": "rescued the survival"}, {"measurement": "survival of TARDBP ALS iMNs", "setting": "[6]", "result": "rescued the survival"}, {"measurement": "release of TSG101+ exosomes from iNs", "setting": "[7]; electron microscopy and western blotting", "result": "increased release of TSG101+ exosomes"}, {"measurement": "poly(GR)-GFP+ exosomes released from iNs", "setting": "[7]; iNs expressing poly(GR)50-GFP, FACS of CFSE-labelled exosomes", "result": "released significantly more poly(GR)-GFP+ exosomes"}, {"measurement": "TDP-43 in exosomes from C9ORF72 FTD iNs", "setting": "[7]; [11]", "result": "contained high levels of TDP-43"}, {"measurement": "poly(GR)-GFP+ exosomes released from iMNs", "setting": "[8]; iMNs expressing poly(GR)50-GFP, FACS", "result": "released significantly more poly(GR)-GFP+ exosomes"}, {"measurement": "TDP-43 in exosomes from C9ORF72 ALS iMNs", "setting": "[8]; [11]", "result": "contained high levels of TDP-43"}, {"measurement": "release of TSG101+ exosomes from iMNs", "setting": "[8]; western blotting", "result": "significantly increased the release of TSG101+ exosomes"}]}]}
